Turning to `CCCCCCCCCCCCCCCCCCNC(=O)NCCCS(C)=O` (stereo unspecified), the melting point (commonly the temperature, or range, at which the solid turns liquid) turned out to be 105 °C.

As for `O=C(O)C1(c2ccccc2)CCC2(CC1)OCCO2`, the melting point lay in the range of 134 to 139 °C.

On to `O=C(NCCCCOc1ccc(-c2ccc(=O)[nH]n2)cc1)c1cccnc1`, for which the melting point was 155 to 157 °C.

In turn, `CC(C)(C)OC(=O)NCCC(=O)NCC(C(=O)OCc1ccccc1)c1ccccc1` (stereo unspecified) had a melting point of 84.5 to 86 °C.

Compound `CCON=C(CC)C1=C(O)CC(c2c(C)c3c(c(C)c2Cl)CC(C)(CC)C3)CC1=O` (stereo unspecified) displayed a melting point of 56 to 58 °C.

In the case of `COC(=O)c1nn(-c2cccc(NC(C)=O)c2)c(=O)n(Cc2ccc(Cl)cc2)c1=O`, the melting point was determined as 193 °C.

Take `Cc1ncc(C=S)c(Nc2ccccc2)n1`: the melting point came to 106 °C.

On to `COC(=O)c1ccc(C=CC(=O)N2CCc3c([nH]c4ccccc34)C2c2ccc3c(c2)CCO3)cc1` (stereo unspecified), for which the melting point is 186 °C.

In turn, `CC(C#Cc1ccc(C(=O)O)c(O)c1)c1ccc2c(c1)C(C)(C)CCC2(C)C` (stereo unspecified) came in with a melting point of 191 to 192 °C.

Compound `CCOC(=O)c1cnc2c(C)cc(-c3ccc(C(F)(F)F)cc3)cn12` had a melting point of 128 °C.

In the case of `CN(CCC(=O)C(Cc1ccccc1)NC(=O)c1ccccc1)C(=O)N1CCCC1C(=O)O` (stereo unspecified), the melting point is 38 to 68 °C.

On to `Cc1ccc(Sc2cc(C(C)(C)C)c(O)c(C(=O)O)c2C)cc1`, for which the melting point is 163 to 164 °C.

Compound `CCCOc1ccccc1-c1nc(NC(C)=O)cc(=O)[nH]1` had a melting point of 230 to 231 °C.

Consider `COC(=O)Cc1ccc(OCc2nc(-c3ccccc3)oc2C)cc1`, for which the melting point lay in the range of 74 to 75 °C.

`COC(=O)C(O)C(NC(=O)OCc1ccccc1)C(=O)OC` (stereo unspecified) gave a melting point of 129 °C.

In turn, `CCN1Cc2nc(CO)cn2-c2ccccc21` yielded a melting point of 160 to 165 °C.

Compound `O=C(CCc1ccc([N+](=O)[O-])cc1)c1c(O)c2cccnc2n(-c2ccccc2)c1=O` returned a melting point of 215 to 217 °C.

In the case of `CCOC(=O)C(=CN(C)C)C(=O)c1cc2cc(F)c(F)cc2nc1Cl`, the melting point was found to be 140 °C.

`COc1cc(N)c(Cl)cc1C(=O)NCC1CCC(C)N1Cc1ccccc1` (stereo unspecified) yielded a melting point of 136 to 137 °C.

For the compound `Clc1ccc(-c2nc3n(c2Cl)CCCC3)c(Cl)c1`, the melting point was in the range of 99 to 101 °C.

Consider `CCCCCCNC(=S)NC(=O)c1ccc(C#N)cc1`, for which the melting point lay in the range of 95 to 96 °C.

`O=C(Cl)c1cc(Oc2ccc(C(F)(F)F)cc2Cl)ccc1[N+](=O)[O-]` showed a melting point of 118 to 120 °C.

In turn, `O=C(c1ccccc1)c1cc([N+](=O)[O-])ccc1N(Cc1ccccc1)C(=O)CBr` came in with a melting point of 149 °C.

Compound `CCNCCc1c[nH]c2ccc(Cn3cncn3)cc12` displayed a melting point of 106 to 107 °C.

In the case of `O=C1CCC[C@@H](c2ccc(Cl)cc2)N1c1ccccc1`, the melting point lay within 77.5 to 80 °C.

In turn, `CCOC(=O)Cc1ccc(OCCN2CCN(c3cc(Cl)nnc3Cl)CC2)cc1` registered a melting point of 128 to 130 °C.

In turn, `CCc1cccc(NC(=O)C(C#N)=C(C)N(C)C)c1` gave a melting point of 98 to 100 °C.

Consider `COC(=O)C(C)Oc1ncn(-c2ccc(Cl)cc2Cl)n1` (stereo unspecified), for which the melting point lay in the range of 74 to 75 °C.

In turn, `CCCCCCCCCCCCCCCCCCSC(C)(C)C(=O)CC(=O)OCC` showed a melting point of 34 to 37 °C.

`CC1(C)CCc2c(-c3ccco3)nc3sc4c(NCCN5CCOCC5)ncnc4c3c2C1` had a melting point of 123 to 125 °C.

On to `O=C(NCC(=O)c1cccs1)c1ccc(F)cc1`, for which the melting point was 147 to 148 °C.

Take `COc1ccc2c(c1)CC(C)(CN1CCC(c3ccccc3)CC1)NC2=O` (stereo unspecified): the melting point was 93 to 95 °C.

Turning to `CCCc1ccc(-c2ccc(=O)[nH]n2)cc1`, the melting point fell in the range of 180 to 182 °C.

The compound `NC(=O)c1sc2nccc(N3CCCC3)c2c1N` registered a melting point of 275 to 283 °C.

Turning to `CCOc1cc(C(F)(F)F)sc1C(=O)OC`, the melting point came out at 93.6 °C.

`CC(C)c1ccc(-c2ccc(-c3ccccc3)s2)s1` registered a melting point of 104 to 106 °C.

On to `CCCNC1=NS(=O)(=O)c2sc(Cl)cc2N1`, for which the melting point was 258 to 261 °C.

Compound `COc1ccc(N2CCN(C(=O)CC3CCCc4ccccc43)CC2)cc1` (stereo unspecified) showed a melting point of 133 to 134 °C.

Regarding `CC(C)(C)CNC(=O)Oc1ccccc1`, the melting point lay in the range of 77 to 78 °C.

For `CCCCCS(=O)(=O)NC(=O)OCc1ccc(OCCOC)cc1Oc1ncc(C(F)(F)F)cc1Cl`, the melting point lay within 130 to 132 °C.

The compound `NS(=O)(=O)Oc1cccc(Br)c1` yielded a melting point of 90 to 91.5 °C.

With `CCn1c(=O)c2[nH]c(/C=C/c3cccc(C(F)(F)F)c3)nc2n(CC)c1=O`, the melting point is > 270 °C.

`O=C1C(=O)c2ccccc2C2=C1SCC1(CCCCC1)O2`: the melting point fell in the range of 194 to 195 °C.

For `O=C(O)c1ccc(-c2nccs2)nc1`, the melting point is > 300 °C.

For the compound `COc1cccc2c1CC(C(=O)NCc1ccc(C(=O)O)cc1)N2S(=O)(=O)c1ccc(-c2ccc(F)cc2Cl)cc1` (stereo unspecified), the melting point lay in the range of 225 to 234 °C.

As to `CCCc1nc2c(N)nc3ccccc3c2n1CCCCS(C)(=O)=O`, the melting point was in the range of 202 to 204 °C.

Compound `CC(C)SC(C)(C)C(=O)O` gave a melting point of 51.5 to 52.5 °C.

In turn, `CN1C(=O)C(C2=COc3ccccc3O2)=C(c2cn(C(=O)OC(C)(C)C)c3cc(OCc4ccccc4)ccc23)C1=O` yielded a melting point of 88 °C.

Regarding `CC(C)c1cc(C(=O)Nc2ccc(C(=O)O)c(Cl)c2)oc1C(C)C`, the melting point lay within 152 to 153 °C.

On to `CC(=O)Nc1ccc(OC(=O)C2CSC(=O)N2)cc1` (stereo unspecified), for which the melting point fell in the range of 204 to 205 °C.

`CCOC(=O)c1ncc(C)c(-c2ccccc2)c1C(=O)N(CCO)Cc1cc(C(F)(F)F)cc(C(F)(F)F)c1` registered a melting point of 138 to 139 °C.

Take `O=S(=O)(c1ccccc1)c1ccc(Cl)cn1`: the melting point was in the range of 154 to 155 °C.

The compound `CCCCCCCCNC1=NS(=O)(=O)c2cnccc2N1` displayed a melting point of 176 to 179 °C.

With `COc1ccc2c(c1)CCC1CCNC(=O)C(CC(=O)NC(C)C)=C21` (stereo unspecified), the melting point was in the range of 213 to 216 °C.

`O=C1c2c(Cl)cccc2-n2cnc(-c3noc(CCl)n3)c2[C@@H]2CCN12` showed a melting point of 211 to 212 °C.

Take `C=CCOc1ccc2c(c1)Oc1cc(O)ccc1C21OC(=O)c2ccccc21` (stereo unspecified): the melting point stood at 204 °C.

Turning to `O=C1CCCC2=C1OC(CC(=O)c1ccccc1)(c1ccccc1)C=C2c1ccccc1` (stereo unspecified), the melting point was in the range of 178 to 179 °C.

In turn, `CCOC(=O)Cn1c(-c2ccc(Cl)c(Cl)c2)nc2cccnc21` gave a melting point of 141 to 142 °C.

`CCOc1nc2c(cnn2CC)nc1C(=O)NN1CCCCC1` yielded a melting point of 114 to 115 °C.

With `NS(=O)(=O)OCCOc1ccc(O)cc1`, the melting point lay within 92 to 93 °C.

For `O=C1NCCc2[nH]c3c(F)cccc3c21`, the melting point lay in the range of 255 to 257 °C.

The compound `CCN/C(=C1\C(=O)c2ccccc2S1=O)c1ccccc1` (stereo unspecified) yielded a melting point of 183 to 185 °C.

Take `CN1CCN(c2ccc(Nc3ncc4ccc(Nc5ccccc5)n4n3)cc2)CC1`: the melting point is 152 to 157 °C.

As to `N#Cc1cccc(C(F)(F)F)c1O`, the melting point is 134 °C.

For the compound `CC(Cc1ccc(OCCCO)cc1)NCC(O)c1cccc(C(F)(F)F)c1` (stereo unspecified), the melting point fell in the range of 97 to 103 °C.

`COc1cc2c(cc1O)C(=O)CCC2`: the melting point lay in the range of 147 to 148 °C.

The record behind these values is a melting point compilation (Tetko et al.; mined from patent text by program, amines drawn as free bases though some values may be those of a salt).
